# Experimental data taken from patent publication US20250282757A1, “ARYL ETHER-SUBSTITUTED HETEROCYCLIC COMPOUNDS AS GLP1R AGONISTS” (MINDRANK AI LTD., priority 2021, published 2025).
# Target: GLP-1R (Homo sapiens, UniProt P43220)
# Test: Agonist activity on GLP-1R, HTRF cAMP detection in stably transfected GLP-1R/HEK293 cells
# Type: cell-based
# Settings: for EC50: 30 min incubation; for Max activity: relative to top concentration of reference GLP-1(7-37)
# Protocol: Detection of Agonist Activity of the Test Compounds on GLP-1R
# • 1) The test compound was dissolved in DMSO and diluted 4-fold with Bravo for a total of 10 concentration gradients (the starting concentration was 1 mM). […] HBSS (10 mL) pre-warmed at 37° C. was added, mixed gently, and centrifuged at 1000 rpm for 5 minutes. The supernatant was discarded and another 10 mL of […] was added and mixed gently. […] The plate was shaken to mix at 2000 rpm for 60 seconds. • 7) The cells in the 384-well plate were incubated in CO2 cell incubator at 37° C. for 30 min. • 8) 10 μL of HTRF cAMP detection solution was added to the 384-well plate, stick with sealing film, and incubated at room temperature for 1 hour. • 9) After 1 hour of incubation, the sealing film was removed. The plate was put into the EnVision microplate reader to read the values of OD665 nm and OD615 nm.
# GLP-1R, sequence (P43220 24-463): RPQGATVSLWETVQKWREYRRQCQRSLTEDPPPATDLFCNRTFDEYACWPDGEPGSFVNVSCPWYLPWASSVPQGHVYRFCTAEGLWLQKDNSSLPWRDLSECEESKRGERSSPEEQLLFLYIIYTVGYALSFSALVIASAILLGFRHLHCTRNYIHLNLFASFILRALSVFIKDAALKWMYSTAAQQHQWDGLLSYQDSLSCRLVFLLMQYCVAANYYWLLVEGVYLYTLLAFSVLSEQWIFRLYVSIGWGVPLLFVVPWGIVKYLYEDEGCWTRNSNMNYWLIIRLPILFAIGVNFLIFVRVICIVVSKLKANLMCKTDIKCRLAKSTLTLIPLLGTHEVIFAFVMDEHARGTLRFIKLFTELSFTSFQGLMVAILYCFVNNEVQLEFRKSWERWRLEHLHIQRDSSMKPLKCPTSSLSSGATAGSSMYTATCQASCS
EC50,Max activity,SMILES
1.48 nM,114.8%,"CCn1cncc1Cn1c(CN2CCC(Oc3ccc(F)c(OCc4ccc(Cl)cc4F)n3)CC2)nc2ccc(C(=O)O)cc21 [Compound C11, 2-((4-((6-((4-chloro-2-fluorobenzyl)oxy)-5-fluoropyridin-2-yl)oxy)piperidin-1-yl)methyl)-1-((1-ethyl-1H-imidazol-5-yl)methyl)-1H-benzo[d]imidazole-6-carboxylic acid]"
0.233 nM,125.5%,"CCn1cncc1Cn1c(CN2CCC(Oc3cccc(CSc4ccc(C#N)cc4F)n3)CC2)nc2ccc(C(=O)O)cc21 [Compound C12, 2-((4-((6-(((4-cyano-2-fluorophenyl)thio)methyl)pyridin-2-yl)oxy)piperidin-1-yl)methyl)-1-((1-ethyl-1H-imidazol-5-yl)methyl)-1H-benzo[d]imidazole-6-carboxylic acid]"
1.82 nM,141.7%,"N#CCC1(Cn2c(CN3CCC(Oc4cccc(CSc5ccc(C#N)cc5F)n4)CC3)nc3ccc(C(=O)O)cc32)CC1 [Compound C13, 2-((4-((6-(((4-cyano-2-fluorophenyl)thio)methyl)pyridin-2-yl)oxy)piperidin-1-yl)methyl)-1-((1-(cyanomethyl)cyclopropyl)methyl)-1H-benzo[d]imidazole-6-carboxylic acid]"
0.315 nM,101.9%,C#Cc1ccc(OCc2cccc(OC3CCN(Cc4nc5ccc(C(=O)O)cc5n4Cc4cncn4CC)CC3)n2)c(F)c1 [Compound C14]
0.807 nM,109.1%,"C#Cc1ccc(OCc2cccc(OC3CCN(Cc4nc5ccc(C(=O)O)cc5n4C[C@@H]4CCO4)CC3)n2)c(F)c1 [Compound C15, (S)-2-((4-((6-((4-ethynyl-2-fluorophenoxy)methyl)pyridin-2-yl)oxy)piperidin-1-yl)methyl)-1-(oxetan-2-ylmethyl)-1H-benzo[d]imidazole-6-carboxylic acid]"
2.54 nM,99.2%,"N#Cc1ccc(OCc2cccc(NC3CCN(Cc4nc5ccc(C(=O)O)cc5n4C[C@@H]4CCO4)CC3)n2)c(F)c1 [Compound C16, (S)-2-((4-((6-((4-cyano-2-fluorophenoxy)methyl)pyridin-2-yl)amino)piperidin-1-yl)methyl)-1-(oxetan-2-ylmethyl)-1H-benzo[d]imidazole-6-carboxylic acid]"
0.668 nM,127.7%,"CCn1cncc1Cn1c(CN2CCC(Nc3cccc(COc4ccc(C#N)cc4F)n3)CC2)nc2ccc(C(=O)O)cc21 [Compound C17, 2-((4-((6-((4-cyano-2-fluorophenoxy)methyl)pyridin-2-yl)amino)piperidin-1-yl)methyl)-1-((1-ethyl-1H-imidazol-5-yl)methyl)-1H-benzo[d]imidazole-6-carboxylic acid]"
1.07 nM,134.3%,"O=C(O)c1ccc2nc(CN3CCC(Oc4cccc(COc5ccc(Br)cc5F)n4)CC3)n(Cc3cncn3CC3CC3)c2c1 [Compound C19, 2-((4-((6-((4-bromo-2-fluorophenoxy)methyl)pyridin-2-yl)oxy)piperidin-1-yl)methyl)-1-((1-(cyclopropylmethyl)-1H-imidazol-5-yl)methyl)-1H-benzo[d]imidazole-6-carboxylicacid]"
0.425 nM,137.0%,"N#Cc1ccc(OCc2cccc(OC3CCN(Cc4nc5ccc(C(=O)O)cc5n4Cc4cncn4CC4CC4)CC3)c2)c(F)c1 [Compound C20, 2-((4-(3-((4-cyano-2-fluorophenoxy)methyl)phenoxy)piperidin-1-yl)methyl)-1-((1-(cyclopropylmethyl)-1H-imidazol-5-yl)methyl)-1H-benzo[d]imidazole-6-carboxylic acid]"
30.4 nM,,"Cn1c(CN2CCC(Oc3cccc(COc4ccc(Cl)cc4F)n3)CC2)nc2ccc(C(=O)O)cc21 [Compound C22, 2-((4-((6-((4-chloro-2-fluorophenoxy)methyl)pyridin-2-yl)oxy)piperidin-1-yl)methyl)-1-methyl-1H-benzo[d]imidazole-6-carboxylic acid]"
1.67 nM,76.88%,"CCn1cncc1Cn1c(Cc2ccc(Oc3cccc(COc4ccc(Cl)cc4F)n3)cc2)nc2ccc(C(=O)O)cc21 [Compound C24, 2-(4-((6-((4-chloro-2-fluorophenoxy)methyl)pyridin-2-yl)oxy)benzyl)-1-((1-ethyl-1H-imidazole-5-yl)methyl)-1H-benzo[d]imidazole-6-carboxylic acid]"
0.512 nM,133.4%,"C#Cc1ccc(OCc2cccc(OC3CCN(Cc4nc5ccc(C(=O)O)cc5n4CC4(CC#N)CC4)CC3)n2)c(F)c1 [Compound C25, 1-((1-(cyanomethyl)cyclopropyl)methyl)-2-((4-((6-((4-ethynyl-2-fluorophenoxy)-methyl)pyridine-2-yl)oxy)piperidin-1-yl)methyl)-1H-benzo[d]imidazole-6-carboxylic acid]"
0.215 nM,117.3%,"N#CCC1(Cn2c(CN3CCC(Oc4cccc(COc5ccc(Br)cc5F)n4)CC3)nc3ccc(C(=O)O)cc32)CC1 [Compound C26, 2-((4-((6-((4-bromo-2-fluorophenoxy)methyl)pyridin-2-yl)oxy)piperidin-1-yl)methyl)-1-((1-(cyanomethyl)cyclopropyl)methyl)-1H-benzo[d]imidazole-6-carboxylic acid]"
8.03 nM,,"N#Cc1ccc(OCc2cccc(Oc3ccc(Cc4nc5ccc(C(=O)O)cc5n4C[C@@H]4CCO4)cc3)n2)c(F)c1 [Compound C27, (S)-2-(4-((6-((4-cyano-2-fluorophenoxy)methyl)pyridin-2-yl)oxy)benzyl)-1-(oxetan-2-ylmethyl)-1H-benzo[d]imidazole-6-carboxylic acid]"
5.05 nM,,"CCn1cncc1Cn1c(Cc2ccc(Oc3cccc(COc4ccc(C#N)cc4F)n3)cc2)nc2ccc(C(=O)O)cc21 [Compound C28, 2-(4-((6-((4-cyano-2-fluorophenoxy)methyl)pyridin-2-yl)oxy)benzyl)-1-((1-ethyl-1H-imidazol-5-yl)methyl)-1H-benzo[d]imidazole-6-carboxylic acid]"
6.83 nM,121.6%,"C#Cc1ccc(OCc2cccc(OC3CCN(Cc4nc5ccc(C(=O)O)cc5n4Cc4cncn4C(C)C)CC3)c2)c(F)c1 [Compound C29, 2-((4-(3-((4-ethynyl-2-fluorophenoxy)methyl)phenoxy)piperidin-1-yl)methyl)-1-((1-isopropyl-1H-imidazol-5-yl)methyl)-1H-benzo[d]imidazole-6-carboxylic acid]"
5.85 nM,121.2%,"CC(C)n1cncc1Cn1c(CN2CCC(Oc3cccc(COc4ccc(Br)cc4F)c3)CC2)nc2ccc(C(=O)O)cc21 [Compound C30, 2-((4-(3-((4-bromo-2-fluorophenoxy)methyl)phenoxy)piperidin-1-yl)methyl)-1-((1-isopropyl-1H-imidazol-5-yl)methyl)-1H-benzo[d]imidazole-6-carboxylic acid]"
0.833 nM,106.6%,"CC(C)n1cncc1Cn1c(CN2CCC(Oc3cccc(COc4ccc(C#N)cc4F)n3)CC2)nc2ccc(C(=O)O)cc21 [Compound C31, 2-((4-((6-((4-cyano-2-fluorophenoxy)methyl)pyridin-2-yl)oxy)piperidin-1-yl)methyl)-1-((1-isopropyl-1H-imidazol-5-yl)methyl)-1H-benzo[d]imidazole-6-carboxylic acid]"
0.768 nM,114.3%,CC(C)n1cncc1Cn1c(CN2CCC(Oc3cccc(COc4ccc(C#N)cc4F)c3)CC2)nc2ccc(C(=O)O)cc21 [Compound C32]
0.068 nM,99.1%,"N#Cc1ccc(OCc2cccc(OC3CCN(Cc4nc5ccc(C(=O)O)cc5n4Cc4cncn4CC4CC4)CC3)n2)c(F)c1 [Compound C33, 2-((4-((6-((4-cyano-2-fluorophenoxy)methyl)pyridin-2-yl)oxy)piperidin-1-yl)methyl)-1-((1-(cyclopropylmethyl)-1H-imidazol-5-yl)methyl)-1H-benzo[d]imidazole-6-carboxylic acid]"
11 nM,113.6%,"CCN1C(=O)CCC1Cn1c(CN2CCC(Oc3cccc(COc4ccc(C#N)cc4F)n3)CC2)nc2ccc(C(=O)O)cc21 (centres unmarked) [Compound C34, 2-((4-((6-((4-cyano-2-fluorophenoxy)methyl)pyridin-2-yl)oxy)piperidin-1-yl)methyl)-1-((1-ethyl-5-oxopyrrolidin-2-yl)methyl)-1H-benzo[d]imidazole-6-carboxylic acid]"
> 100 nM,,"CCN1CCC[C@H]1Cn1c(CN2CCC(Oc3cccc(COc4ccc(C#N)cc4F)n3)CC2)nc2ccc(C(=O)O)cc21 [Compound C35, (S)-2-((4-((6-((4-cyano-2-fluorophenoxy)methyl)pyridin-2-yl)oxy)piperidin-1-yl)methyl)-1-((1-ethylpyrrolidin-2-yl)methyl)-1H-benzo[d]imidazole-6-carboxylic acid]"
3.92 nM,104.0%,Cc1cc(C(=O)O)cc2c1nc(CN1CCC(Oc3cccc(COc4ccc(C#N)cc4F)c3)CC1)n2C[C@@H]1CCO1 [Compound C36]
0.223 nM,121.0%,"CCn1cncc1Cn1c(CN2CCC(Sc3cccc(COc4ccc(C#N)cc4F)n3)CC2)nc2ccc(C(=O)O)cc21 [Compound C37, 2-((4-((6-((4-cyano-2-fluorophenoxy)methyl)pyridin-2-yl)thio)piperidin-1-yl)methyl)-1-((1-ethyl-1H-imidazol-5-yl)methyl)-1H-benzo[d]imidazole-6-carboxylic acid]"
